# In patent US9578878B2, “Antimicrobial efficacy of an oregano oil and caprylic acid blend” (Kemin Industries, Inc., priority 2014, dated 2017):
# Key:
# [1] = system: Pseudomonas aeruginosa (ATCC #9027); assay: Microtiter assay, MIC to inhibit 90% growth; format: cell-based; conditions: 24 hours, n = 3
# Experimental: (§1) For assays to find minimum inhibitory concentrations, all treatments were diluted in 10% DMSO and 0.5% Tween 80 to stabilize the samples.
# (§2) Microorganisms Escherichia coli (ATCC #8739), Streptococcus sanguinis (ATCC #BAA-1455), Salmonella enteria subsp. enterica (ex Kauffmann and Edwards) Le Minor and Popoff serovar Typhimurium (ATCC #14028), Staphylococcus aureus (ATCC #6538), Pseudomonas aeruginosa (ATCC #9027), and Candida albicans (ATCC #10231) were obtained from a −80° C. internal stock culture. Aspergillus brasiliensis (ATCC #16404) was obtained from an internal stock solution culture stored at 4° C. E. coli, S. enterica S. aureus, and P. aeruginosa were grown in tryptic soy broth (TSB) and incubated at 37° C. for 24 h. S. sanguinis was grown in brain heart infusion broth (BHI). A. brasiliensis was plated on Sabourand dextrose agar (SDA) and incubated at 25° C. for 5-7 days. C. albicans was grown in Sabourand dextrose broth (SDB) and incubated at 25° C. for 48 h.
# (§3) A. brasiliensis was harvested by adding 18 mL sterile saline to the plate and agitating the mold from the agar with a sterile inoculating loop. The inoculum was collected upon agitation. All suspended microbes were diluted with the same type of broth media used to grow each organism until an inoculum in the range of 10^6 CFU/mL was achieved. The inoculum concentration was determined by plate count method. Each strain was identified by plating on the appropriate growth media, E. coli, S. aureus, and P. aeruginosa on tryptic soy agar (Bacto, BD Sciences, Manassas, Va.) and C. albicans and A. brasiliensis on Sabrouand dextrose agar, to ensure there was no contamination of the inoculum.
# (§4) Microtiter Assay. A microtiter assay was completed E. coli, S. aureus, P. aeruginosa, S. enteria, S. sanguinis, and C. albicans. Briefly, 10^6 cfu/ml preparations of each organism were made and enumerated using a Petroff-Hausser counting chamber. A 100 μl aliquot of the inoculums was dispensed into microtiter plate wells and a 100 μl aliquot of treatment was dispensed into the same wells. Two separate set of wells were prepared as positive and negative controls, with the positive wells containing 100 μl test organism in growth media and 100 μl sterile phosphate buffer and with the negative control wells containing 100 μl of the same growth media and 100 μl sterile phosphate buffer. The plates were incubated overnight at the appropriate temperature for each organism. A plate reader was used to track the kinetic growth curve using 405 nm and […]. The last time point at 24 hours was averaged and used to determine MIC90. Each treatment was conducted in triplicate wells.
# [2] = system: Escherichia coli (ATCC #8739); assay: Microtiter assay, MIC to inhibit 90% growth; format: cell-based; conditions: 24 hours, n = 3
# Experimental: as §1, §2, §3, §4
# [3] = system: Candida albicans (ATCC #10231); assay: Microtiter assay, MIC to inhibit 90% growth; format: cell-based; conditions: 24 hours, n = 3
# Experimental: as §1, §2, §3, §4
# [4] = system: Streptococcus sanguinis (ATCC #BAA-1455); assay: Microtiter assay, MIC to inhibit 90% growth; format: cell-based; conditions: 24 hours, n = 3
# Experimental: as §1, §2, §3, §4
# [5] = system: Staphylococcus aureus (ATCC #6538); assay: Microtiter assay, MIC to inhibit 90% growth; format: cell-based; conditions: 24 hours, n = 3
# Experimental: as §1, §2, §3, §4
# [6] = system: Salmonella enterica; assay: Microtiter assay, MIC to inhibit 90% growth; format: cell-based; conditions: 24 hours, n = 3
# Experimental: as §1, §2, §3, §4
# [7] = system: A. brasiliensis; assay: Poison agar assay; format: cell-based, Aspergillus brasiliensis
# Experimental: as §2, §3
# A poison agar assay was completed for A. brasiliensis. Potato dextrose agar was used as the plated medium. Inocula at 10^5 cfu/ml were prepared and counted using a Petroff-Hausser counting chamber. Each treatment was added directly into the control without DMSO and Tween 80 as used in the previous experiments. The diameter of no growth around a 6 mm blank disk after incubation at 25° C. for 72 hrs was compared to the untreated control.
compound,measurement,setting,value
"Cc1ccc(C(C)C)cc1O [Carvacrol, carvacrol]","Minimum Inhibitory Concentration (MIC) to inhibit 90% growth, P. aeruginosa",[1],>0.1%
same,"Minimum Inhibitory Concentration (MIC) to inhibit 90% growth, E. coli",[2],0.10%
same,"Minimum Inhibitory Concentration (MIC) to inhibit 90% growth, C. albicans",[3],0.10%
same,"Minimum Inhibitory Concentration (MIC) to inhibit 90% growth, S. sanguinis",[4],0.05%
same,"Minimum Inhibitory Concentration (MIC) to inhibit 90% growth, S. aureus",[5],0.05%
same,"Minimum Inhibitory Concentration (MIC) to inhibit 90% growth, S. enterica",[6],0.05%
same,% Inhibition from Control,[7]; 0.005% in agar,15.10%
same,Diameter of Growth,[7]; 0.005% in agar,6.50 mm
same,% Inhibition from Control,[7]; 0.010% in agar,64.70%
same,Diameter of Growth,[7]; 0.010% in agar,2.70 mm
same,% Inhibition from Control,[7]; 0.030% in agar,100.00%
same,Diameter of Growth,[7]; 0.030% in agar,0.00 mm
same,MIC90 in the poison agar assay,"[7]; potato dextrose agar, 25° C., 72 hrs",0.03%
